Literature values, collected in patent US12246054B2, “Method of treating diseases” (Amryt Endo, Inc., priority 2015, dated 2025).

Legend:
[1] = in vivo
[2] = system: idiopathic intracranial hypertension; conditions: IIH patients; injections

## C[C@@H](O)[C@@H]1NC(=O)[C@H](CCCCN)NC(=O)[C@@H](Cc2c[nH]c3ccccc23)NC(=O)[C@H](Cc2ccccc2)NC(=O)[C@@H](NC(=O)[C@H](N)Cc2ccccc2)CSSC[C@@H](C(=O)N[C@H](CO)[C@@H](C)O)NC1=O [octreotide]
[1]
  acute rebound GH hypersecretion: absence of acute rebound GH hypersecretion
  circulating half-life: 2 h
[2]
  Patients in whom headache and papilledema subsided and visual disturbances improved (response rate): about 90%
